Like-named read-outs stand apart in the source and are kept apart here.
Assays:
[1] = test system: adults; conditions: 2380±320 mg for six months; cited from earlier work
[2] = test system: hyperinsulinaemic, non-diabetic adolescents; conditions: 850 mg twice daily for eight weeks; placebo 3.8%; cited from earlier work
[3] = test system: insulin secretion; conditions: comparable dosages; cited from earlier work
[4] = test system: overweight patients with dyslipidemia; conditions: in vivo; cited from earlier work
[5] = test system: hyperinsulinaemic patients; conditions: maximal 200 mg/day in three dosages, eight weeks; placebo 5.0 kg; cited from earlier work
[6] = test system: obese men
Protocol: The study was focused on detecting the early beneficial effects. […] Metformin was started in a dose of 850 mg twice daily, and was increased to 850 mg three times daily in the second week. All subjects received exercise training three times a week, and all were instructed to take a 30 minute walk after lunch and after dinner.
Dietary intake was reduced by about 30%, according to the calculation procedure described in example 1.
A total of 19 obese men with a BMI of 30-37.5 kg/m^2 participated in the study.

[7] = test system: obese, healthy men; test: First study: open, uncontrolled 6 month Diazoxide insulin suppression and weight loss study
Protocol: Fourteen obese, healthy men were studied for 6 months in an open, uncontrolled study.
All subjects received dietary advice to reduce caloric intake to meet the calculated basal requirements for ideal body weight (based on the Harrison-Bennedict equation). They were also instructed to increase walking exercise to at least 30 minutes a day. […] Subsequently, the following data were recorded every month, for a period of 6 months: body weight, abdominal circumference, supine and upright blood pressure, the results of a two-day, 8-point HGM, and adverse effects.
DZX was increased every month until a maximum of 900 mg/day was reached or until side effects occurred.

[8] = test system: obese men; conditions: cited from earlier work
[9] = test system: obese hyperinsulinaemic men; conditions: high-dose, 6 months, with moderate caloric restriction and lifestyle advice; cited from earlier work
[10] = test system: obese men; conditions: one week, cited from earlier work
[11] = test system: hyperinsulinaemic obese subjects; conditions: 8-week weight-loss diet; 32 women, 3 men; cited from earlier work
[12] = after six months, mean dosage about 585 mg/day
[13] = oral 300 mg per day in three dosages

CN(C)C(=N)N=C(N)N [Metformin]
weight reduction [1]: 3.24% | weight loss [2]: about 6.5%

CNC(=NS(=O)(=O)c1ccc(Cl)cc1)N1C[C@H](c2ccccc2)C(c2ccc(Cl)cc2)=N1 [Compound A, (4S)-3-(4-chlorophenyl)-N′-[(4-chlorophenyl)sulfonyl]-N-methyl-4-phenyl-4,5-dihydro-1-H-pyrazole-1-carboximidamide]
inhibiting insulin secretion, compared with Diazoxide [3]: more effective than Diazoxide

CC(C)CC(N(C)C)C1(c2ccc(Cl)cc2)CCC1 (stereo not drawn) [Sibutramine]
(placebo-subtracted) net weight loss [4]: about 5 kg

Cc1c(C(=O)NN2CCCCC2)nn(-c2ccc(Cl)cc2Cl)c1-c1ccc(Cl)cc1 [Rimonanbant, Rimonabant]
(placebo-subtracted) net weight loss [4]: about 6 kg

CC1=NS(=O)(=O)c2cc(Cl)ccc2N1 [Diazoxide, 7-chloro-3-methyl-4H-1,2,4-benzothiadiazine-1,1-dioxide]
weight loss [5]: 9.8 kg | decrease in fasting serum insulin ([6]; 2 months, mean±SEM, Diazoxide 100 mg twice then three times a day, Metformin 850 mg twice then three times daily): 42.4±17.7% | serum glucose level before treatment ([6]; in vivo): 5.7 ± 0.2 mmol/L | body weight after treatment ([7]; 6 months): 105.7 ± 3.8 kg | other adverse effects ([7]; 6 months): not observed | waist circumference after treatment ([7]; 6 months): 107.7±2.2 cm | decrease of total body fat mass ([7]; 6 months, DEXA): 9.5 ± 1.9 kg | reduction of fasting insulin levels ([7]; 6 months, mean daily dose 600±54 mg, P<0.001): 65% | change in total body fat mass ([7]; 6 months, P<0.001): −23.3% | increase of fasting glucose ([7]; 6 months, P<0.01): 0.8 ± 0.3 mmol/L | body weight at baseline ([7]; baseline): 115.1 ± 3.4 kg | waist circumference at baseline ([7]; baseline): 116.9±1.4 cm | body weight after treatment [8, 12]: about 103 kg | plasma level of Diazoxide [8, 12]: about 49 mg/l | body weight at start ([8]; before treatment): about 114 kg | weight reduction [9]: relevant degree of weight reduction | effect on plasma glucose and insulin levels ([10]; oral 150 mg per day in three dosages): no significant effect | effect on plasma glucose and insulin levels ([10]; oral 225 mg per day in three dosages): no significant effect | effect on fasting or postprandial glucose levels [10, 13]: without affecting fasting or postprandial glucose levels | reduction of plasma insulin levels [10, 13]: about 20% | effect on weight loss [11]: No effect

CCCCCCCCCCC[C@@H](C[C@@H]1OC(=O)[C@H]1CCCCCC)OC(=O)[C@H](CC(C)C)NC=O [Orlistat]
(placebo-subtracted) net weight loss [4]: ~3 kg
